Assay: xn = mol fraction of the nth substance listed
Settings: 101 kPa

CN(C)C=O + CCCC[n+]1ccn(C)c1.F[P-](F)(F)(F)(F)F
x1 = 1
Settings | viscosity [mPa·s]
303.15 K | 0.83
313.15 K | 0.74
323.15 K | 0.66

CCCC[n+]1ccn(C)c1.F[P-](F)(F)(F)(F)F + CN(C)C=O
viscosity [mPa·s]
Settings | x2 = 0 | x2 = 0.3028 | x2 = 0.4909 | x2 = 0.6262 | x2 = 0.7227 | x2 = 0.7963 | x2 = 0.8543 | x2 = 0.9012 | x2 = 0.9399 | x2 = 0.9724
303.15 K | – | 52.1 | 15.21 | 6.21 | 3.48 | – | 1.93 | 1.5 | – | 0.98
313.15 K | 129.7 | 28.84 | – | 5.2 | 3.33 | 2.12 | – | 1.26 | 1.05 | 0.83
323.15 K | 88.5 | 25.91 | – | – | 2.2 | 1.82 | 1.51 | 1.08 | 0.91 | 0.77

Reference: a compilation of properties of binary mixtures (doi:10.1016/j.molliq.2016.03.072)
